Measured values: patent US9606107B2, “Crk—a novel target for cancer therapy” (priority 2011, dated 2017)
Peptide text beside a SMILES is read from it. * marks the point of attachment. Cbz = O=C(OCc1ccccc1)*; CH2F = FC*

What was measured:
Format in all cases: cell-based
[1] = test system: 4T1 metastatic breast tumor cells; test: Cytotoxicity in 4T1 metastatic breast tumor cells by PI staining, immunofluorescent timelapse microscopy
Experimental: Specifically, in FIGS. 9A-9C, 4T1 cells were infected with PA103 strains expressing ExoT or defective in ExoT expression (Mock), or treated with 50 μM cisplatinum (Cisplatin).
Specifically, 4T1 cells were infected with PA103 strains expressing ExoT (ExoT) […] or defective in ExoT expression (Mock) (FIG. 9A), or treated with 50 μM cisplatinum (Cisplatin) (FIG. 9C). Cytotoxicity was determined by propidium iodide (PI) staining using immunofluorescent timelapse microscopy (FIG. 9D).

HeLa cells [2] = test: Apoptosis / cell death of transiently transfected HeLa cells by IF time-lapse video microscopy with propidium iodide
Text: FIGS. 2A-2D illustrate photographically, graphically and in a chart that transient transfection of DN Crk induces cell death in HeLa cells. Specifically, HeLa cells were transiently transfected with wild type CrkI (pCrkI), SH2 DN (pCrkI/R38K), or SH3 DN (pCrkI/W170K) fused to C FP in the absence (FIG. 2A) or presence (FIG. 2B) of carbobenzoxy-valyl-alanyl-aspartyl-[O-methyl], or ZVAD. The tabulated results shown in FIG. 2D, were collected from multiple videos. The time to death was defined as the time of expression of transfected gene (appearance of green) to the time of PI uptake (appearance of yellow) and expressed as the mean+SEM.
We postulated that if modification of Crk by ExoT is responsible for inducing anoikis, DN mutations in CrkI domains might also result in apoptosis, phenocopying the ExoT's cytotoxicity. To investigate this hypothesis, HeLa cells were transfected with mammalian expression vectors harboring CrkI or its SH2 (CrkI/R38K) or SH3 (CrkI/W170K) DN mutant forms, fused at their C-termini to GFP, and assessed apoptosis by IF video microscopy in the presence or absence of Z-VAD, a pancaspase inhibitor that blocks known apoptotic cell deaths. […]
(§1) ExoT inhibits ASCS formation. […] We assessed the proliferation capacity index associated with ExoT- or CrkI apoptotic cells. […]

B16 melanoma cells = test: Cytotoxicity in B16 melanoma cells by PI staining, immunofluorescent time lapse microscopy; details: infection with ExoT-expressing P. aeruginosa, MOI 10, or transfection with ExoT-EGFP
Experimental: Specifically, FIGS. 8A-8C are photographs of B16 cells infected with Pseudomonas aeruginosa strains expressing ExoT or defective in ExoT (Mock) at a multiplicity of infection (MOI) 10 or treated with 50 μM cisplatinum. Cytotoxicity was determined by measuring propidium iodide (PI) staining using immunofluorescent time lapse microscopy. FIG. 8D graphically illustrates the level of cell death, for the samples of FIGS. 8A-8C as indicated by PI staining intensity in pixels as measured from each frame using NIH Image J software.
B16 cells were infected with Pseudomonas aeruginosa strains expressing ExoT or defective in ExoT (Mock), at multiplicity of infection (MOI) 10 or treated with 50 μM cisplatinum (FIGS. 8A-8C). Cytotoxicity was determined by measuring propidium iodide (PI) staining (red) using immunofluorescent time lapse microscopy. Still images are shown. The level of cell death, indicated by PI staining intensity (pixels), was measured from each frame using NIH Image J software (FIG. 8D). B16 melanoma cells were transiently transfected with pIRES expression vectors, harboring ExoT-EGFP or EGFP alone. Cytotoxicity was determined by PI staining using IF microscopy.

HeLa cells [3] = test: ACSC formation, release and signalling in transfected apoptotic HeLa cells (IF time-lapse microscopy)
Text: Specifically, HeLa cells were transiently transfected with CrkI-GFP expression vector. CrkI forms complexes (indicated […] which go through a cytoplasmic bridge from a dying cell (indicated by red arrow) and induce healthy neighbor recipient cells (indicated by yellow arrow) to divide. Six frames (FIGS. 3A-3F) from IF timelapse microscopy are shown.
FIG. 4 graphically illustrates that ACSC formation is an active process. Specifically, the incidence of apoptotic compensatory signaling complex (ACSC) release from CrkI, CrkI-R38K (SH2 DN), and CrkI-VV170K (SH3 DN) transfected HeLa cells is shown in bar chart form.
FIG. 5 graphically illustrates that ACSC formation is regulated differently by SH2 and SH3 domains. Specifically, the number of ACSC complexes per apoptotic CrkI, CrkI (SH2 DN), and CrkI (SH3 DN) transfected HeLa cells was determined and the results are presented in bar chart form.
FIGS. 6A-6C photographically illustrate that the ADPRT domain of ExoT appears to inhibit ACSC. […]
as §1

HeLa cells [4] = test: Proliferation capacity index of transfected apoptotic cells (mitotic cells in neighbouring cells); details: compared to CrkI-transfected apoptotic cells; within six hours after cell rounding
Text: FIG. 7 graphically illustrates that ExoT blocks ACSC-induced proliferation in surrounding cells. Specifically, the proliferation capacity index of the CrkI-EGFP or ExoTEGFP transfected apoptotic cells was defined based on the capacity to induce proliferation in the neighboring cells within six hours after cell rounding.
ExoT inhibits ASCS formation. […] If ExoT inhibited ACSC assembly and signaling, it was reasoned that there should be a reduction in the number of mitotic cells surrounding the ExoT-induced apoptotic cells. We assessed the proliferation capacity index associated with ExoT- or CrkI apoptotic cells. […] Without being bound to any particular theory, it is believed that CrkI adaptor protein functions as a scaffold for the ACSC assembly and that PA utilizes ExoT to block this process while inducing apoptosis in its target host.

HeLa-S3 cells = test: Cytotoxicity of ExoT-expressing PA103 infection in anoikis-resistant HeLa-S3 cells (PI uptake, video microscopy); details: ExoT-expressing PA103 strain, MOI about 10
Experimental: Anoikis-sensitive (HeLa) or Anoikis-resistant (HeLa S3) cells were infected with the ExoT-expressing PA strain (PA103 AU) at an MOI of ca. 10. Host cell death was assessed by uptake of propidium iodide (PI) by simultaneous time lapse phase and fluorescent video microscopy. Video images were captured every 15 min. Representative frames are shown.
To test this hypothesis, 1×10^5 HeLa and HeLa-S3 cells were infected with ExoT-expressing PA103 strain at MOI of about 10 and assessed apoptosis by immunofluorescent (IF) video microscopy in the presence of propidium iodide (PI) as described.

## ExoT
[1]; infection with PA103 strain expressing ExoT
  cell death in 4T1 cells: potent inducer of cell death
HeLa cells [2]; transient transfection with expression vector, IF video microscopy, PI
  apoptosis (cell death) in transfected HeLa cells: 100%
B16 melanoma cells
  cytotoxicity in B16 melanoma cells: potent cytotoxicity
HeLa cells [3]; transfection with ExoT fusion vectors
  ACSC-like globular complexes in transfected apoptotic HeLa cells: never observed
HeLa cells [4]
  percentage of mitotic cells surrounding transfected apoptotic HeLa cells: substantial reduction
HeLa-S3 cells
  ExoT-induced cytotoxicity in HeLa-S3 cells: resistant

## COC(=O)C[C@H](NC(=O)[C@H](C)NC(=O)[C@@H](NC(=O)OCc1ccccc1)C(C)C)C(=O)CF [Z-VAD, carbobenzoxy-valyl-alanyl-aspartyl-[O-methyl], reference compound] (Cbz-Val-Ala-Asp(OMe)-CH2F)
HeLa cells [2]; treatment with Z-VAD
  apoptotic PCD: blocked
HeLa cells [3]; treatment with Z-VAD, all conditions
  ACSC formation: completely blocked

## N.N.[Cl][Pt][Cl] [cisplatin, cisplatinum, reference compound]
[1]; 50 μM cisplatinum
  cell death in 4T1 cells: kill 4T1 cells
